According to patent US4400384A, “5-o-Cyanobenzyl-4,5,6,7-tetrahydrothieno [3,2-c] pyridine methanesulfonate and other novel salts thereof” (Sanofi, S.A., priority 1980, dated 1983):

How the values were obtained:
[1] = test system: blood-platelet aggregation (collagen); experiment: Inhibitor action on blood-platelet aggregation, collagen method (ex vivo after gastric tube dosing); assay type: in vivo, female rats of the Wistar type; details: 100 mg/Kg base equivalent at 48, 24 and 2 h before blood drawing, controls 2.53
Procedure: (§1) The inhibitor action on blood-platelet aggregation of the salts of the present invention was determined by two different standard methods known to the art.
(§2) The second method is that described in Ferrand J. C., Lale A.--NUMERATION ET AGREGATION PLAQUETTAIRE A L AIDE DE L AUTOCOUNTER. APPLICATION A L ETUDE DE LA TICLOPIDINE. COMM. SYMPOSIUM TECHNICON INDUSTRIE (PARIS, June 15, 1978); Ferrand J. C., Lale A.--EVALUATION EX-VIVO DE L AGREGATION PLAQUETTAIRE PAR UNE TECHNIQUE AUTOMATIQUE SUR SANG TOTAL COMM. SOCIETE FRANCAISE DE BIOLOGIE CLINIQUE (PARIS Sept. 28, 1979); and J. C. Ferrand, A. Lale, D. Aubert and G. Barthelemy--APPRECIATION QUANTITATIVE DE L' ACTIVITE ANTI-AGREGANTE DE LA TICLOPIDINE PAR VOIE AUTOMATIQUE. COMM. REUNION DE L' ASOCIATION FRANCAISE DE PHARMACOLOGISTES DIJON (May 2-3, 1980), and is referred to hereafter as the collagen method.
Groups of 10 female rats of the Wistar type were each dosed with one of the base or one of the salts of the invention and with the corresponding maleate salt of Amselem U.S. Pat. No. 4,097,482, at periods of 48 hours, 24 hours and 2 hours prior to drawing blood for testing by the ADP and collagen techniques referred to above. The active medicaments were administered by means of a gastric tube in the form of a 5% aqueous solution of gum arabic. A dosage level of 100 mg/Kg was used for the base, and for the salts an amount was used sufficient to provide the equivalent amount of the base portion of the salt.

[2] = test system: blood-platelet aggregation; experiment: Inhibition of blood-platelet aggregation (general statement); assay type: in vivo; details: result in words
Procedure: as §1
The first method, involving the use of ADP (adenosine diphosphate), is that of Ferrand J. C., Gaich C., Dumas, A.--EVALUATION DE L' EFFET ANTI-AGREGANT DE LA TICLOPIDINE PAR UNE TECHNIQUE SUR SANG TOTAL. COMM. SOCIETE DE BIOLOGIE DE TOULOUSE (TOULOUSE Feb. 9, 1978), RESUME IN: REV MED TOULOUSE, 1978, 14, (SUPPL. 5) 680, referred to hereinafter as the ADP method.
as §2, with “method. […]” for “method.”

rats = experiment: Sub-acute toxicity in rats, oral, 6 weeks; assay type: in vivo
Procedure: These tests were carried out on four groups of 30 rats, 15 males and 15 females in each group; the rats all being type SPF adults. Administration was by the oral route, carried out 5 days per week for a period of 6 consecutive weeks.

[3] = oral, 50, 150, 300 mg/Kg, 5 days per week, 6 weeks

CS(=O)(=O)O.N#Cc1ccccc1CN1CCc2sccc2C1 [Methanesulfonate, 5-o-Cyanobenzyl-4,5,6,7-tetrahydrothieno [3,2-c] pyridine methanesulfonate]
BLOOD PLATELET AGGREGATION, COLLAGEN [1]: 0.59
inhibitor action against blood-platelet aggregation [2]: excellent inhibitory action against blood-platelet aggregation
toxicity and tolerance (overall) (rats; conclusion from acute and sub-acute tests): low toxicity and good tolerance
microscopic examination of principal organs (rats; end of test period or 15 days thereafter): normal in appearance with exception of some signs of gastric intolerance
histological examination of the organs (rats; oral, 6 weeks): good tolerance
behavior of the dosed animals (rats; [3]): No significant modification of the behavior
death attributable to administration (rats; [3]): nor was there any death attributable to the administration of the MS salt
